# Reference: EP1970064A1, “Silicon-derivatives for pet-imaging” (Bayer Schering Pharma Aktiengesellschaft, priority 2007, dated 2008)
# Assay: Hydrolytic stability: hydrolysis of the 19F fluorosilane to the silanol at physiological pH (7.0)
# Assay type: physicochemical
# Settings: hydrolytic halflife of the 19F compound at pH 7.0, calculated from the kinetics
# Method: The time dependent degree of hydrolysis of compounds of formula I in which X is a fluorine atom of isotope 19 to compounds of formula I in which X is a hydroxy group was determined at physiological pH (7.0). From the kinetics the hydrolytic halflife (t1/2) measured in hours [h] of compounds of formula I in which X is a fluorine atom of isotope 19 were calculated (Table 1, column 2).
# The ratio of the hydrolytic halflifes of compounds of formula I in which X is a fluorine atom of isotope 19 and the radioactive halflife of the 18-F isotope (1.83 hours) is defined as relative stability (Table 1, column 3).
# After 6 hours 90% of the 18-F isotope have been decayed.
# Compounds of formula I in which X is a fluorine atom of isotope 18 are considered as useful for PET applications if the relative stability of their analogs bearing a fluorine atom of isotope 19 exceed a factor of four and if at least 50% of these compounds remain intact after 6 hours under hydrolytic conditions at pH 7.
row,Structure (SMILES),t1/2
1,"CC(C)[Si](F)(c1cccc(CCCOC2CCCCO2)c1)C(C)C (racemic) [Compound 3d - F, (RS)-Fluoro-diisopropyl-{3-[3-(tetrahydro-pyran-2-yloxy)-propyl]-phenyl}-silane]",> 100.0 h
2,"CC(C)[Si](F)(c1cccc(CCOC2CCCCO2)c1)C(C)C (racemic) [Compound 3e - F, (RS)-Fluoro-diisopropyl-{3-[2-(tetrahydro-pyran-2-yloxy)-ethyl]-phenyl}-silane]",> 100.0 h
3,"F[Si](c1ccccc1)(c1ccccc1)c1ccc(CCOC2CCCCO2)cc1 (racemic) [Compound 3f-F, (RS)-Fluoro-diphenyl-{4-[2-(tetrahydro-pyran-2-yloxy)-ethyl]-phenyl}-silane]",0.07 h
4,"CC(C)C[Si](F)(CC(C)C)c1ccc(COC2CCCCO2)cc1 (racemic) [Compound 3g-F, (RS)-Fluoro-diisobutyl-[4-(tetrahydro-pyran-2-yloxymethyl)-phenyl]-silane]",8.1 h
5,"CC(C)[Si](F)(c1ccc(CCCO)cc1)C(C)C [Compound 4c - F, 3-[4-(Fluoro-diisopropyl-silanyl)-phenyl]-propan-1-ol]",> 100.0 h
6,"CC(C)[Si](F)(c1ccc(CCC(=O)O)cc1)C(C)C [Compound 5c - F, 3-[4-(Fluoro-diisopropyl-silanyl)-phenyl]-propionic acid]",59.0 h
7,"CC(C)[Si](F)(c1cccc(CC(=O)O)c1)C(C)C [Compound 5e - F, [3-(Fluoro-diisopropyl-silanyl)-phenyl]-acetic acid]",20.0 h
8,"CC(C)C[Si](F)(CC(C)C)c1ccc(C(=O)O)cc1 [Compound 5g-F, 4-(Fluoro-diisobutyl-silanyl)-benzoic acid]",3.5 h
9,"CC(C)C[Si](F)(CC(C)C)c1ccc(CC(=O)O)cc1 [Compound 5h-F, [4-(Fluoro-diisobutyl-silanyl)-phenyl]-acetic acid]",8.7 h
